Measurements as given in US20020177120A1, “ASSAYS FOR APOTOSIS MODULATORS” (priority 1999, published 2002).

Tests used:
Type in all cases: cell-based, human
U-138 cells = experiment: FRET signal in SAT-transfected U-138 cells; details: pcDNA3VH-SAT transfected U-138 parental cultures
Description: Stable expression of the SAT reporter in U-138 cells was investigated by transfecting cultures with pcDNA3VH-SAT using calcium phosphate (Materials and Methods), and then selecting in medium containing G418 ([…]). […] The parental culture showing the strongest fluorescence and best growth characteristics was subcloned. Unexpectedly, the ability of the subclones to produce a staurosporin-inducible change in FRET signal was not stable, i.e., disappearing at passages 9, 11 and 13, but then reappearing at passage 16. While it was speculated that this phenomena may have resulted from some difference in expression and/or regulation of apoptosis or FRET reporter in sub-cultures of cells, these properties were not considered desirable and these SAT-transfected U-138 cell lines were discontinued in hopes that an improved reporter construct might solve the problem of irreproducibility.

F1-1-42 cells = experiment: Staurosporin-induced apoptosis in F1-1-42 SAT FRET reporter cells (FRET signal, western blot, caspase-3, morphology)
Method: Detecting Intracellular Changes in a FRET Reporter in Cells Undergoing Apoptosis: Having established that SAT reporter protein synthesized in HEK293 cells could be cleaved ex vivo, i.e., in cell lysates by trypsin (above), an initial in vivo intracellular assay was conducted using the selected F1-1-42 clonal cell line and staurosporin to induce apoptosis. […] In these experiments the F1-1-42 cells were plated at a density of 4×10^5 cells/0.5 ml in each well of a 24-well microtiter plate. After overnight incubation, apoptosis was induced by adding staurosporin to a final concentration of 5 μM, and using vehicle (0.25% DMSO) as a negative control. Assays for caspase-3 were used to confirm that apoptosis was induced. […] Subsequent testing determined that significant changes in FRET signal were first detectable at about 8 hours after addition of staurosporin and were maximal by 24 hrs post-induction.

caspase-3 [1] = experiment: Caspase-3 assay in SAT-reporter-transformed HEK293 cells after apoptosis inducers; details: confluent HEK293, 1-5 μM staurosporin for 8 hrs.
caspase-3 [2] = experiment: Inducibility and kinetics of apoptosis in U-138 cells (caspase-3 activity, inter-nucleosomal DNA fragmentation)
Method: DNA Fragmentation ELISA: Apoptosis-induced inter-nucleosomal fragmentation of chromosomal DNA was quantified using the “Cell Death Detection ELISA^PLUS” (Boehringer Mannheim) according to the manufacturer's instructions. Briefly, ˜10^4 cells/well were plated on a poly-D-lysine-coated 96-well plate and treated for various periods of times with different apoptosis-inducing agents. The cells were lysed and the nuclei and membranes were pelleted. An aliquot of the cytoplasm-containing supernatant was then transferred to a streptavidin-coated microtiter plate and incubated with anti-histone-biotin and anti-DNA-peroxidase, resulting in the formation of “sandwich” antibody complexes, i.e., (anti-DNA-peroxidase)-(nucleosomal-DNA-containing-histone) -(anti-histone-biotin)-(streptavidin-microtiter plate). Unbound antibody was removed by washing. Peroxidase substrate (i.e., ABTS) was added and nucleosomal DNA complexes quantified by spectrophotometric analysis of the colored peroxidase reaction product.
Caspase-3 Assay: Caspase-3 activity was assayed according to the following protocol. Cells plated and treated as above were washed in 1×PBS and lysed in 1×assay buffer (1 mM DTT, 1% Triton X-100, 0.5% Tween-20 in 1×PBS, pH 7.2). […] Fluorescence readings were taken on the Cytofluor II plate reader (excitation 360 nm, emission 460 nm, 6 reads/well, gain 50).

HEK293 cells = experiment: Annexin V apoptotic membrane assay in SAT-reporter-transformed HEK293 cells; details: staurosporin, 4 hrs.
Description: A test system was constructed to evaluate SAT reporter expression and feasibility of detecting FRET signal changes in mammalian cells in microtiter assays. The human embryonic kidney-derived HEK293 cell line was chosen as a host because of its relatively high transfection efficiency, rapid growth, easy maintenance and suitability for microplate assay formats. In preliminary experiments in which HEK293 cells were transfected with pcDNA3-Emerald, transformed cells were fluorescent and there was no loss of fluorescence, or obvious detrimental effects on cell morphology or growth, in a selected pool of cells (i.e., mixed populations of cells) over the course of one month. […] Optimal conditions for transfection of HEK 293 cells with SAT-reporter plasmid were determined. Cells transfected using LIPOFECTAMINE (Life Technologies) and selected in G418 (Life Technologies) expressed full-length SAT reporter protein as determined by western analysis of transformed HEK293 cells after two weeks of in vitro selection. […] Under these conditions of treatment with staurosporin only about half of the SAT-reporter-transformed HEK293 cells in the population were apoptotic at 4 hrs. as determined using the Annexin V assay (Materials and Methods). […]

F10-24-2 control cells = experiment: FRET reporter control assay in F10-24-2 (SnAT) cells
Description: Transfection of pcDNA3VH-SgAT and pcDNA3VH-SnAT into U-138 cells (using methods described above) resulted initially in few colonies and FRET signal was lost in many clones during expansion, however, from among the various subclones the F9-1-13 (pcDNA3VH-SgAT transfected; ATCC No. PTA-84) and F10-24-2 (pcDNA3-SnAT transfected) subclones were eventually expanded and shown to express stable FRET signals. As desired, the FRET signal expressed in F9-1-13 decreased in response to both staurosporin and anti-Fas antibody treatment of cells, while the FRET signal expressed by the F10-24-2 control cells, (i.e., lacking a caspase substrate domain), was unaffected following staurosporin or anti-Fas antibody treatment. […] F9-1-13 therefore appeared suitable for microtiter assays, and perhaps use in HTS assays for screening to identify and select modulators of apoptosis.

CN[C@@H]1C[C@H]2O[C@@](C)([C@@H]1OC)n1c3ccccc3c3c4c(c5c6ccccc6n2c5c31)C(=O)NC4 [staurosporin]
FRET signal change, correlated with FRET reporter cleavage in western blot (U-138 cells): induced changes in FRET signal
SAT reporter cleavage by western analysis after induction (F1-1-42 cells; 5 μM staurosporin): cleavage of the SAT reporter
caspase-3 activity after induction (F1-1-42 cells; 5 μM staurosporin): caspase-3 activation
FRET signal change after induction (F1-1-42 cells; 5 μM staurosporin, 24-well plate, 4×10^5 cells/0.5 ml): concomitant decrease in FRET signal
time at which significant changes in FRET signal were first detectable (F1-1-42 cells; after addition of staurosporin): about 8 hours
time at which FRET signal changes were maximal (F1-1-42 cells; post-induction with staurosporin): ≤ 24 h
increase in caspase-3 activity over background (caspase-3 [1]): 6- to 10 fold
time at which caspase-3 activity and inter-nucleosomal DNA fragmentation were maximally altered (caspase-3 [2]; 5 μM staurosporin, minimal at 4 hrs., intermediate by 8 hrs.): 16 to 24 h
inducibility of caspase-3 activity (caspase-3 [2]; 30-300 μM etoposide or 1.5-15.0 μM staurosporin, 8 hrs.): inducible with staurosporin
cells in the population apoptotic (Annexin V assay) (HEK293 cells): about half
FRET signal response to inducer treatment (F10-24-2 control cells; reporter lacking a caspase substrate domain): unaffected
FRET reporter western blot before and after induction of apoptosis (F10-24-2 control cells; staurosporin induction): no visible difference
